Data: PubChem BioAssay (NCI)
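96-well plates; 48 h exposure; 5 concentrations. Endpoints by linear interpolation between flanking doses. Not reached: highest tested concentration assigned. The concentration for full growth arrest is given as TGI.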 Where a SMILES comes first, the peptide text is derived from it. [ ]: non-standard residue; d: D form. The star is where a group is joined. ξ: configuration not given here. NMeY = CN[C@@H](Cc1ccc(O)cc1)C(=O)O; Cbz = O=C(OCc1ccccc1)*; ξA = CC(N)C(=O)O

Columns and labels:
Assay in all cases: NCI-60 cell line screen, 48 h
OVCAR-8 ovarian = tested on: OVCAR-8 ovarian
HOP-62 NSCLC = tested on: HOP-62 NSCLC
SK-MEL-5 melanoma = tested on: SK-MEL-5 melanoma
PC-3 prostate = tested on: PC-3 prostate
SN12C renal = tested on: SN12C renal
HCT-15 colon = tested on: HCT-15 colon
HOP-92 NSCLC = tested on: HOP-92 NSCLC
SW-620 colon = tested on: SW-620 colon
TK-10 renal = tested on: TK-10 renal
HCT-116 colon = tested on: HCT-116 colon

SMILES	TGI (OVCAR-8 ovarian) [µM]	TGI (HOP-62 NSCLC) [µM]	TGI (SK-MEL-5 melanoma) [µM]	TGI (PC-3 prostate) [µM]	TGI (SN12C renal) [µM]	TGI (HCT-15 colon) [µM]	TGI (HOP-92 NSCLC) [µM]	TGI (SW-620 colon) [µM]	TGI (TK-10 renal) [µM]	TGI (HCT-116 colon) [µM]
COc1ccc(C[C@@H](C(=O)N[C@@H](C)C(N)=O)N(C)C(=O)[C@@H]2CCCN2C(=O)[C@H](CC(C)C)NC(=O)C(C)NC(=O)OCc2ccccc2)cc1 (stereo not given in full) (Cbz-[ξA]LP[NMeY](Me)A-NH2)	> 100	> 100	> 100	> 100	> 100	> 100	> 100	> 100	> 100	> 100
O=c1ccn(C/C=C/c2ccccc2)c(=S)n1C/C=C/c1ccccc1	> 100	> 100	> 100	> 100	> 100	> 100	> 100	> 100	> 100	> 100
CNC(=O)O/N=C1\N(C)CN(c2ccccc2)C12CCN(CCCC(=O)c1ccc(F)cc1)CC2	> 100	> 100	33	> 100	> 100	> 100	> 100	> 100	> 100	> 100
O=C(Nc1ccccc1)OCCN=c1c2ccccc2ccc2ccccc12	84	> 100	31.2	49.4	> 100	> 100	53.2	> 100	> 100	35.9
C1CSCCSCCSCCSCCS1	> 100	> 100	> 100	> 100	> 100	> 100	> 100	> 100	> 100	> 100
CSC12c3cc(C)n(-c4ccc(I)cc4)c3CC(C)(C)CN1C(=O)C2Oc1ccccc1 (stereo not given)	> 100	> 100	> 100	> 100	> 100	> 100	> 100	> 100	> 100	> 100
N#Cc1c(-c2ccccc2)cn(C(=O)c2ccccc2)c1N	> 100	> 100	> 100	> 100	> 100	> 100	> 100	> 100	> 100	> 100
c1ccc2c(c1)CCN1CCc3ccccc3C1C2 (stereo not given)	> 100	> 100	37	> 100	> 100	> 100	> 100	> 100	> 100	> 100
O=S(=O)(O)c1c(Cl)c(Cl)c(O)c2ncccc12	51.3	17.6	28.6	> 59.6	40.8	27.1	47.8	> 72.4	27.4	16.6
Cc1cn(C2CC(O)C(Cn3nncc3Cn3cnc4c(N)ncnc43)O2)c(=O)[nH]c1=O (stereo not given)	> 100	> 100	> 100	> 100	> 100	> 100	> 100	> 100	> 100	> 100
c1ccc2c(c1)nc1ccccn12	> 100	> 100	> 100	> 100	> 100	> 100	> 100	> 100	> 100	> 100
CCOC(=O)/C=C(/C(=O)OCC)n1ccc(=O)n(Cc2cn(CCCCOC(C)=O)nn2)c1=O	> 100	> 100	> 100	> 100	> 100	> 100	20.6	> 100	> 100	> 100
CC(C)(C)OC(=O)N(O)CCCn1cnc2c(NC3CC3)ncnc21	> 100	> 100	> 100	> 100	> 100	> 100	> 100	> 100	> 100	> 100
CC/C(Cl)=N\OC(=O)Nc1ccc(F)c(Cl)c1	36.8	34.3	29	29.6	40.2	35.5	9.41	6.92	31.3	35.3
COc1ccc(C[C@H]2COC(=O)[C@@H]2Cc2ccc(Br)cc2)cc1OC	> 100	> 100	17.2	52.1	> 100	> 100	79.5	> 100	> 94.2	> 89.7
Cc1cc(-c2nc3cc(F)ccc3s2)ccc1N	> 100	72	> 82.3	> 76.2	> 100	> 100	> 78	> 100	> 4.64	> 91
